Assay results reported in ChEMBL document CHEMBL5375952, “Discovery of Novel 8-Hydroxyquinoline Derivatives with Potent In Vitro and In Vivo Antifungal Activity” (J Med Chem, 2023).
In brackets after ≈: the same amount, converted by molar mass.

What was measured:
Candida albicans [1] = experiment: Antifungal activity against Candida albicans SC5314 assessed as fungal growth inhibition incubated for 48 hrs by broth microdilution method; assay type: functional
Candida albicans [2] = experiment: Antifungal activity against Candida albicans 21 assessed as fungal growth inhibition incubated for 48 hrs by broth microdilution method; assay type: functional
Candida albicans [3] = experiment: Antifungal activity against Candida albicans 22 assessed as fungal growth inhibition incubated for 48 hrs by broth microdilution method; assay type: functional
Nakaseomyces glabratus [4] = experiment: Antifungal activity against Candida glabrata 201 assessed as fungal growth inhibition incubated for 48 hrs by broth microdilution method; assay type: functional
Nakaseomyces glabratus [5] = experiment: Antifungal activity against Candida glabrata 202 assessed as fungal growth inhibition incubated for 48 hrs by broth microdilution method; assay type: functional
Nakaseomyces glabratus [6] = experiment: Antifungal activity against Candida glabrata 205 assessed as fungal growth inhibition incubated for 48 hrs by broth microdilution method; assay type: functional
Pichia kudriavzevii [7] = experiment: Antifungal activity against Candida krusei 68 assessed as fungal growth inhibition incubated for 48 hrs by broth microdilution method; assay type: functional
Pichia kudriavzevii [8] = experiment: Antifungal activity against Candida krusei 69 assessed as fungal growth inhibition incubated for 48 hrs by broth microdilution method; assay type: functional
Pichia kudriavzevii [9] = experiment: Antifungal activity against Candida krusei 477 assessed as fungal growth inhibition incubated for 48 hrs by broth microdilution method; assay type: functional
Candida parapsilosis [10] = experiment: Antifungal activity against Candida parapsilosis 105 assessed as fungal growth inhibition incubated for 48 hrs by broth microdilution method; assay type: functional; conditions: Lodderomyces parapsilosis
Candida parapsilosis [11] = experiment: Antifungal activity against Candida parapsilosis 107 assessed as fungal growth inhibition incubated for 48 hrs by broth microdilution method; assay type: functional; conditions: Lodderomyces parapsilosis
Candida parapsilosis [12] = experiment: Antifungal activity against Candida parapsilosis 125 assessed as fungal growth inhibition incubated for 48 hrs by broth microdilution method; assay type: functional; conditions: Lodderomyces parapsilosis
Candida tropicalis [13] = experiment: Antifungal activity against Candida tropicalis 176 assessed as fungal growth inhibition incubated for 48 hrs by broth microdilution method; assay type: functional
Candida tropicalis [14] = experiment: Antifungal activity against Candida tropicalis 178 assessed as fungal growth inhibition incubated for 48 hrs by broth microdilution method; assay type: functional
Candida tropicalis [15] = experiment: Antifungal activity against Candida tropicalis 184 assessed as fungal growth inhibition incubated for 48 hrs by broth microdilution method; assay type: functional
Cryptococcus neoformans [16] = experiment: Antifungal activity against Cryptococcus neoformans 443 assessed as fungal growth inhibition incubated for 48 hrs by broth microdilution method; assay type: functional
Cryptococcus neoformans [17] = experiment: Antifungal activity against Cryptococcus neoformans 444 assessed as fungal growth inhibition incubated for 48 hrs by broth microdilution method; assay type: functional
Cryptococcus neoformans [18] = experiment: Antifungal activity against Cryptococcus neoformans 445 assessed as fungal growth inhibition incubated for 48 hrs by broth microdilution method; assay type: functional
Aspergillus fumigatus [19] = experiment: Antifungal activity against Aspergillus fumigatus 023-12 assessed as fungal growth inhibition incubated for 48 hrs by broth microdilution method; assay type: functional
Aspergillus fumigatus [20] = experiment: Antifungal activity against Aspergillus fumigatus A assessed as fungal growth inhibition incubated for 48 hrs by broth microdilution method; assay type: functional
Aspergillus fumigatus [21] = experiment: Antifungal activity against Aspergillus fumigatus 7544 assessed as fungal growth inhibition incubated for 48 hrs by broth microdilution method; assay type: functional
[22] = Cytotoxicity against human Caco-2 cells assessed as cell growth inhibition incubated for 24 hrs by CCK8 assay; assay type: toxicity, cell-based

| Structure (SMILES) | MIC (Candida albicans [1]) [µg/mL] | MIC (Candida albicans [2]) [µg/mL] | MIC (Candida albicans [3]) [µg/mL] | other results |
| --- | --- | --- | --- | --- |
| CC(C)C(=O)NC(c1ccc(C(F)(F)F)cc1)c1ccc2cccnc2c1O (stereo not drawn) | 1 (≈ 2.57 µM) | 1 (≈ 2.57 µM) | 2 (≈ 5.15 µM) | – |
| CCC(=O)NC(c1cccc([N+](=O)[O-])c1)c1ccc2cccnc2c1O (stereo not drawn) | 4 (≈ 11.4 µM) | 4 (≈ 11.4 µM) | 4 (≈ 11.4 µM) | – |
| OCCN1CCN(C(c2ccccc2)c2ccc3cccnc3c2O)CC1 (stereo not drawn) | 1 (≈ 2.75 µM) | 1 (≈ 2.75 µM) | 1 (≈ 2.75 µM) | – |
| CCCC(=O)NC(c1cccc([N+](=O)[O-])c1)c1ccc2cccnc2c1O (stereo not drawn) | 1 (≈ 2.74 µM) | 1 (≈ 2.74 µM) | 1 (≈ 2.74 µM) | – |
| CC(=O)NC(c1ccccc1Cl)c1ccc2cccnc2c1O (stereo not drawn) | 8 (≈ 24.5 µM) | 8 (≈ 24.5 µM) | 8 (≈ 24.5 µM) | – |
| CC(C)C(=O)NC(c1ccc(F)c(Cl)c1)c1ccc2cccnc2c1O (stereo not drawn) | 0.5 (≈ 1.34 µM) | 0.25 (≈ 0.671 µM) | 0.5 (≈ 1.34 µM) | – |
| CC(=O)NC(c1ccc(Cl)cc1Cl)c1ccc2cccnc2c1O (stereo not drawn) | 0.125 (≈ 0.346 µM) | 0.5 (≈ 1.38 µM) | 0.5 (≈ 1.38 µM) | – |
| CSc1ccc(C(NC(=O)C(C)C)c2ccc3cccnc3c2O)cc1 (stereo not drawn) | 2 (≈ 5.46 µM) | 1 (≈ 2.73 µM) | 2 (≈ 5.46 µM) | – |
| CC(C)C(=O)NC(c1ccccc1Cl)c1ccc2cccnc2c1O (stereo not drawn) | 2 (≈ 5.64 µM) | 2 (≈ 5.64 µM) | 2 (≈ 5.64 µM) | – |
| CC(C)C(=O)NC(c1ccc(OC(F)(F)F)cc1)c1ccc2cccnc2c1O (stereo not drawn) | 0.5 (≈ 1.24 µM) | 1 (≈ 2.47 µM) | 1 (≈ 2.47 µM) | – |
| CC(C)C(=O)NC(c1ccc(F)cc1)c1ccc2cccnc2c1O (stereo not drawn) | 1 (≈ 2.96 µM) | 1 (≈ 2.96 µM) | 1 (≈ 2.96 µM) | – |
| CCC(=O)NC(c1ccc(C)cc1)c1ccc2cccnc2c1O (stereo not drawn) | 0.5 (≈ 1.56 µM) | 0.5 (≈ 1.56 µM) | 0.5 (≈ 1.56 µM) | – |

The next lines start with results.

| MIC (Candida albicans [1]) [µg/mL] | MIC (Candida albicans [2]) [µg/mL] | MIC (Candida albicans [3]) [µg/mL] | Structure (SMILES) | other results |
| --- | --- | --- | --- | --- |
| 0.5 (≈ 1.14 µM) | 1 (≈ 2.28 µM) | 2 (≈ 4.55 µM) | CCN(CC)c1ccc(C(NC(=O)Cc2ccccc2)c2ccc3cccnc3c2O)cc1 (stereo not drawn) | – |
| 0.5 (≈ 1.29 µM) | 1 (≈ 2.59 µM) | 1 (≈ 2.59 µM) | O=C(Cc1ccccc1)NC(c1ccc(F)cc1)c1ccc2cccnc2c1O (stereo not drawn) | – |
| 1 (≈ 2.3 µM) | 0.5 (≈ 1.15 µM) | 0.5 (≈ 1.15 µM) | O=C(Cc1ccccc1)NC(c1ccc(OC(F)F)cc1)c1ccc2cccnc2c1O (stereo not drawn) | – |
| 0.5 (≈ 1.17 µM) | 0.5 (≈ 1.17 µM) | 0.5 (≈ 1.17 µM) | COc1ccc(C(NC(=O)Cc2ccccc2)c2ccc3cccnc3c2O)cc1OC (stereo not drawn) | – |
| 0.125 (≈ 0.314 µM) | < 0.125 | 0.125 (≈ 0.314 µM) | COc1ccccc1C(NC(=O)Cc1ccccc1)c1ccc2cccnc2c1O (stereo not drawn) | MIC (Nakaseomyces glabratus [4]): 0.125 µg/mL (≈ 0.314 µM); MIC (Nakaseomyces glabratus [5]): 0.125 µg/mL (≈ 0.314 µM); MIC (Nakaseomyces glabratus [6]): 0.5 µg/mL (≈ 1.25 µM); MIC (Pichia kudriavzevii [7]): 0.125 µg/mL (≈ 0.314 µM); MIC (Pichia kudriavzevii [8]): 0.25 µg/mL (≈ 0.627 µM); MIC (Pichia kudriavzevii [9]): 0.25 µg/mL (≈ 0.627 µM); MIC (Candida parapsilosis [10]): 0.125 µg/mL (≈ 0.314 µM); MIC (Candida parapsilosis [11]): 0.125 µg/mL (≈ 0.314 µM); MIC (Candida parapsilosis [12]): 0.125 µg/mL (≈ 0.314 µM); MIC (Candida tropicalis [13]): > 64 µg/mL; MIC (Candida tropicalis [14]): > 64 µg/mL; MIC (Candida tropicalis [15]): > 64 µg/mL; MIC (Cryptococcus neoformans [16]): 0.125 µg/mL (≈ 0.314 µM); MIC (Cryptococcus neoformans [17]): 0.125 µg/mL (≈ 0.314 µM); MIC (Cryptococcus neoformans [18]): 0.5 µg/mL (≈ 1.25 µM); MIC (Aspergillus fumigatus [19]): 2 µg/mL (≈ 5.02 µM); MIC (Aspergillus fumigatus [20]): 2 µg/mL (≈ 5.02 µM); MIC (Aspergillus fumigatus [21]): 2 µg/mL (≈ 5.02 µM); IC50 at 24 h [22]: > 64 µg/mL |
| 2 (≈ 4.48 µM) | 1 (≈ 2.24 µM) | 2 (≈ 4.48 µM) | CS(=O)(=O)c1ccc(C(NC(=O)Cc2ccccc2)c2ccc3cccnc3c2O)cc1 (stereo not drawn) | – |
| 1 (≈ 2.29 µM) | 1 (≈ 2.29 µM) | 2 (≈ 4.58 µM) | O=C(Cc1ccccc1)NC(c1ccc(C(F)(F)F)cc1)c1ccc2cccnc2c1O (stereo not drawn) | – |
| 1 (≈ 3.12 µM) | 1 (≈ 3.12 µM) | 1 (≈ 3.12 µM) | CCCC(=O)NC(c1ccccc1)c1ccc2cccnc2c1O (stereo not drawn) | – |
| 4 (≈ 11.9 µM) | 8 (≈ 23.8 µM) | 16 (≈ 47.6 µM) | CCC(=O)NC(c1ccccc1OC)c1ccc2cccnc2c1O (stereo not drawn) | – |
| 2 (≈ 4.47 µM) | 1 (≈ 2.24 µM) | 1 (≈ 2.24 µM) | O=C(Cc1ccccc1)NC(c1ccc(Br)cc1)c1ccc2cccnc2c1O (stereo not drawn) | – |
| 0.5 (≈ 1.14 µM) | 1 (≈ 2.29 µM) | 1 (≈ 2.29 µM) | O=C(Cc1ccccc1)NC(c1ccc(Cl)c(Cl)c1)c1ccc2cccnc2c1O (stereo not drawn) | – |
